Data reported in patent US5948798A, “Pyridiniminyl-1,2-benzisoxazoles and -benzisothiazoles” (Hoechst Marion Roussel, Inc., priority 1997, dated 1999).
pIC50: −log10 of the molar value. Counter-ions that a name gives are not always drawn. Like-named read-outs stand apart in the source and are kept apart here.

Columns and labels:
Monoamine Oxidase A = molecular target: T1, Monoamine Oxidase A (Rattus norvegicus, UniProt P21396); assay: in vitro inhibition of monoamine oxidase assay (monoamine oxidase A); format: biochemical, rat (male Wistar, whole brain minus cerebellum); details: rat brain mitochondria, [3H]-5-hydroxytryptamine 200 μM, pH 7.4, 37° C., 30 min; log-probit
T1 construct: serves as the tissue source for mitochondrial monoamine oxidase; from tissue; host or cells: male Wistar rat whole brain minus cerebellum, 18,000 g pellet (P2)
T1 sequence (P21396 1-526): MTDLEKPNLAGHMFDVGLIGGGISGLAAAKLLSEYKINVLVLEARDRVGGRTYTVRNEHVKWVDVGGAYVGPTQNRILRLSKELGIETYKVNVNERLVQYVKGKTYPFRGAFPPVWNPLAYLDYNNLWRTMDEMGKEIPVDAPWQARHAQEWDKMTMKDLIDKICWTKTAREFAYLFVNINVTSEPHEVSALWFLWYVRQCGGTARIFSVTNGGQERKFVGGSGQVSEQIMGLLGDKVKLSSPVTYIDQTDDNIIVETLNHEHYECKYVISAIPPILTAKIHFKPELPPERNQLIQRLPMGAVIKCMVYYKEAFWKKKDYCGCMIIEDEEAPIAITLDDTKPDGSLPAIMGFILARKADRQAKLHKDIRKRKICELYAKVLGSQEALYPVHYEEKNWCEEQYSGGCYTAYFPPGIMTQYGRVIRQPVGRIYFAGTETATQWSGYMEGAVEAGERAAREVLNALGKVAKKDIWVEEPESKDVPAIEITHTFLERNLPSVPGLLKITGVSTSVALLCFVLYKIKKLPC
Excerpt: (§1) In this assay, a modification of an assay described by M. V. Kindt, et al., Europ.
(§2) Male Wistar rats weighing 150-250 grams were sacrificed and the brains rapidly removed.

Monoamine Oxidase B = molecular target: T2, Monoamine Oxidase B (Rattus norvegicus, UniProt P19643); assay: in vitro inhibition of monoamine oxidase assay (monoamine oxidase B); format: biochemical, rat (male Wistar, whole brain minus cerebellum); details: rat brain mitochondria, [14C]-phenethylamine 200 μM, pH 7.4, 37° C., 30 min; log-probit
T2 construct: serves as the tissue source for mitochondrial monoamine oxidase; from tissue; host or cells: male Wistar rat whole brain minus cerebellum, 18,000 g pellet (P2)
T2 sequence (P19643 1-520): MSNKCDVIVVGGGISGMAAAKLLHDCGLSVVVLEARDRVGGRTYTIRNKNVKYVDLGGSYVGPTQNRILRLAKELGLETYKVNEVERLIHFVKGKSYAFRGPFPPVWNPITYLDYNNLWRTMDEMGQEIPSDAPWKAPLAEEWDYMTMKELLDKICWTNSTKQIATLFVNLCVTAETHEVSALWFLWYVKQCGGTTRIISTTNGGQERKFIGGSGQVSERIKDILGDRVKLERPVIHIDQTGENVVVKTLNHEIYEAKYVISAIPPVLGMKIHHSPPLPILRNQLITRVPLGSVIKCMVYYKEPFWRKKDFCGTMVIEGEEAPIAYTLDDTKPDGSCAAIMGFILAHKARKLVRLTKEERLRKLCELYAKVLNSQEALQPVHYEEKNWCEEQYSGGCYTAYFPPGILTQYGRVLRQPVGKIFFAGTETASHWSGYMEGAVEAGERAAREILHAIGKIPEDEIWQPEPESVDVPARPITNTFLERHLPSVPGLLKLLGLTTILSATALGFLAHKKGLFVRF
Excerpt: as §1, §2

Acetylcholinesterase = molecular target: T3, Acetylcholinesterase (Rattus norvegicus, UniProt P37136); assay: in vitro inhibition of acetylcholinesterase assay; format: biochemical, rat (male Wistar, corpora striata)
T3 construct: corpora striata dissected free, weighted and homogenized in 19 volumes; from tissue; host or cells: male Wistar rat corpora striata, homogenate
T3 sequence (P37136 32-614): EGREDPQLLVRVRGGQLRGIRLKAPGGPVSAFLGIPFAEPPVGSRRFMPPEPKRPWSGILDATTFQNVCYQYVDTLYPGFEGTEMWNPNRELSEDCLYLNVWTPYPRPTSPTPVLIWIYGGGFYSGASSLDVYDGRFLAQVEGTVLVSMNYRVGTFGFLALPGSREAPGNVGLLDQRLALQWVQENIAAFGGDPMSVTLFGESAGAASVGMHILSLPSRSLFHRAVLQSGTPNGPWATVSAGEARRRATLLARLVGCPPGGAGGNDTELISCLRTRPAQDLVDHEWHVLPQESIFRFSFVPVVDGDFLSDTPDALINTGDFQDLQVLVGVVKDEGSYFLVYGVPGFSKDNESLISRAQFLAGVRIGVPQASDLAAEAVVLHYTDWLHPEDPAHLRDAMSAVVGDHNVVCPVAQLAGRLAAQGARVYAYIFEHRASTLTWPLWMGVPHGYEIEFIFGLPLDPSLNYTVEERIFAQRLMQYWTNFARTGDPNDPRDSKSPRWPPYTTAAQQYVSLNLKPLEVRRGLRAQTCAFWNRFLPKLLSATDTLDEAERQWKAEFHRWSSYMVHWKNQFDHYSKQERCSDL
Method: 1. 0.05M Phosphate Buffer (pH 7.2)
A solution of monobasic sodium phosphate monohydrate (6.85 g) in distilled water (100 mL) is added to a solution of dibasic sodium phosphate heptahydrate (13.4 g) and distilled water (100 mL) until a pH of 7.2 was attained. The solution was diluted 1 to 10 with distilled water.
3. 5,5-Dithiobisnitrobenzoic acid in Buffer
The 0.05M Phosphate Buffer (pH 7.2) was added to 5.5-dithiobisnitrobenzoic acid to a total volume of 100 mL. i.e., a quantity sufficient (gs) to 100 mL.
4. Stock Solution of Drug
A 2 millimolar stock solution of the test drug is prepared in a quantity sufficient of either acetic acid or dimethyl sulfoxide to volume with 5,5-Dithiobisnitrobenzene Acid in Buffer. Stock Solution of Drug is serially diluted (1:10) so that the final cuvette concentration is 10^-4 molar.
Male Wistar rats are decapitated, brains rapidly removed, corpora striata dissected free, weighted and homogenized in 19 volumes (approximately 7 mg protein/mL) of 0.05M phosphate Buffer (pH 7.2) using a Potter-Elvehjem homogenizer. A 25 μl aliquot of this suspension is added to 1 mL of the vehicle or various concentrations of the test drug and preincubated for 10 minutes at 37° C. Enzyme activity is measured with a Beckman DU-50 spectrophotometer with the following software and instrument settings:
6. Cuvettes--2 mL cuvettes using auto 6-sampler;
7. Blank--1 for each substrate concentration;
8. Interval time--15 seconds (15 or 30 seconds for kinetics);
9. Total time--5 minutes (5 to 10 minutes for kinetics);
13. Results--yes (gives slope); and
Reagents are added to the blank and sample cuvettes as follows: […]
Blank 0.8 mL 5.5-Dithiobisnitrobenzoic Acid
0.8 mL Substrate in Buffer
2. Control 0.8 mL 5.5-Dithiobisnitrobenzoic Acid/Enzyme
3. Drug 0.8 mL 5.5-Dithiobisnitrobenzoic Acid/Drug/Enzyme
Blank values are determined for each run to control for non-enzymatic hydrolysis of substrate and these values are automatically subtracted by the Kindata program available on kinetics soft-pac module. This program also calculates the rate of absorbance change for each cuvette.
Substrate concentration is 10 millimolar diluted 1:2 in assay yielding final concentration of 5 millimolar. 5,5-Dithiobisnitrobenzoic acid concentration is 0.5 millimolar yielding 0.25 millimolar final concentration. [formula]
IC50 values are calculated from log-probit analysis

Row | SMILES | pIC50 (Monoamine Oxidase A) | pIC50 (Monoamine Oxidase B) | pIC50 (Acetylcholinesterase) | pIC50 (Acetylcholinesterase; rat corpora striata homogenate, pH 7.2, acetylthiocholine 5 mM final, 10 min preincubation at 37° C., log-probit, read-out: Inhibition of Acetylcholinesterase Activity IC50)
1 | c1ccc(CCn2ccc(=Nc3noc4ccccc34)cc2)cc1 [3-[1-(2-Phenylethyl)-N-4(1H)-pyridiniminyl]-1,2-benzisoxazole hydrobromide] | 5.52 | 4.80 |  | 
2 | c1ccc(CCCn2ccc(=Nc3noc4ccccc34)cc2)cc1 [3-[1-(3-Phenylpropyl)-N-4(1H)-pyridiniminyl]-1,2-benzisoxazole hydrobromide] |  |  | 6.19 | 
3 | Fc1ccc(Cn2ccc(=Nc3noc4ccccc34)cc2)cc1 [3-[1-(4-Fluorophenyl)methyl-N-4(1H)-pyridiniminyl]-1,2-benzisoxazole hydrobromide] |  |  |  | 6.36
4 | c1ccc(Cn2ccc(=Nc3noc4ccccc34)cc2)cc1 [3-[1-Phenylmethyl-N-4(1H)-pyridiniminyl]-1,2-benzisoxazole hydrobromide] | 5.05 | 4.47 | 6.55 | 
5 | CCCn1ccc(=Nc2noc3cc(Cl)ccc23)cc1 [6-Chloro-3-]1-propyl-N-4(1H)pyridiniminyl]-1,2-benzisoxazole hydrochloride] | 5.78 | 4.57 |  | 
6 | COc1ccc2c(N=c3ccn(Cc4ccccc4)cc3)noc2c1 [6-Methoxy-3-[1-phenylmethyl-N-4(1H)-pyridiniminyl]-1,2-benzisoxazole hydrobromide] | 5.52 | 4.60 | 7.05 | 
